Like-named read-outs stand apart in the source and are kept apart here.
Experiments:
[1] = tested on: previously treated patients with non-small cell lung cancer (NSCLC); conditions: cited from earlier work; for Median survival: ref Wacker et al, 2007
[2] = tested on: previously treated advanced non-small cell lung cancer (NSCLC)
Description: (§1) In the initial stage, we assessed the feasibility of intrapatient dose escalation from 150 mg per day to a maximal level of tolerable skin toxicity, which was defined as the TR. This objective was determined to be feasible if patients developed a TR in the absence of non-cutaneous dose-limiting toxicity (DLT). […] Skin toxicity was graded according to the following scale that was based on patient tolerability:
(§2) In the absence of both a TR and non-cutaneous DLT, the dose was increased in each patient to 200 mg per day, and then in 25 mg per day increments every 14 days. […] Toxicities were graded according to the National Cancer Institute Common Toxicity Criteria (NCI CTC), Version 2.0, except for skin toxicity.
Tumour assessments were performed using the Response Evaluation Criteria in Solid Tumours using computerised tomographic scanning or magnetic resonance imaging pretreatment and every 6–8 weeks during treatment ([Therasse et al, 2000]).

[3] = tested on: patients receiving erlotinib 150 mg per day; design: method as in earlier work; conditions: ref Shepherd et al, 2005, Perez-Soler and Van Cutsem, 2007; cited from earlier work
[4] = Plasma pharmacokinetics of erlotinib and OSI-420 (HPLC, non-compartmental); conditions: erlotinib dose 425 mg m^−2, 1 patient;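 note: pharmacokinetic parameters derived by non-compartmental analysis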
Excerpt: (§3) PK parameters were estimated by non-compartmental methods (WinNonlin v.3.1, Pharsight Corp., Mountain View, CA, USA).

[5] = in vivo
Excerpt: as §3

[6] = tested on: patients with previously treated advanced NSCLC
Description: as §1, §2
Doses were reduced in 25 mg per day decrements for toxicity. The initial systemic intervention for symptomatic skin toxicity was minocycline 100–150 mg twice daily for at least 7 days, and the initiation of treatment with minocycline for symptomatic rash was at the discretion of the investigator.

clinical = conditions: human, in vivo
Excerpt: as §3

Structure (SMILES): C#Cc1cccc(Nc2ncnc3cc(OCCOC)c(OCCOC)cc23)c1 [erlotinib]
- Median PFS ([1]; BR.21 study, 95% CI: 1.9–2.9 months, ref Shepherd et al, 2005): 2.2 months
- ORR ([1]; BR.21 study, 95% CI: 6.4–12%, ref Shepherd et al, 2005): 8.9%
- Median survival ([1]; erlotinib-treated patients who did not experience skin toxicity): 3 months
- Median survival ([1]; erlotinib-treated patients with grade 1 skin toxicity): 7 months
- Median survival ([1]; erlotinib-treated patients with grade 2/3 skin toxicity): 11 months
- Disease control (CR+PR+SD): No. of patients with CR+PR+s.d./total no. of patients ([2]; All patients): 24/42
- Disease control (CR+PR+SD): Response rate (95% CI) ([2]; All patients): 57.1 (41.0, 72.3)
- Objective responses (CR+PR): No. of patients with PR+CR/total no. of patients ([2]; All patients): 5/42
- Objective responses (CR+PR): Response rate (95% CI) ([2]; All patients): 11.9 (4.0, 25.6)
- Disease control (CR+PR+SD): No. of patients with CR+PR+s.d./total no. of patients ([2]; Target rash feasible): 15/24
- Disease control (CR+PR+SD): Response rate (95% CI) ([2]; Target rash feasible): 62.5 (40.6, 81.2)
- Objective responses (CR+PR): No. of patients with PR+CR/total no. of patients ([2]; Target rash feasible): 5/24
- Objective responses (CR+PR): Response rate (95% CI) ([2]; Target rash feasible): 20.8 (7.1, 42.2)
- Disease control (CR+PR+SD): No. of patients with CR+PR+s.d./total no. of patients ([2]; Target rash not feasible): 9/18
- Disease control (CR+PR+SD): Response rate (95% CI) ([2]; Target rash not feasible): 50.0 (26.0, 74.0)
- Objective responses (CR+PR): No. of patients with PR+CR/total no. of patients ([2]; Target rash not feasible): 0/18
- Objective responses (CR+PR): Response rate (95% CI) ([2]; Target rash not feasible): 0.0 (N/A)
- Median progression-free survival (PFS) ([2]; all patients, 95% CI: 1.61–4.14): 2.3 months
- Patients with a partial response (PR) ([2]; five of 42 patients, 95% CI: 4.0–25.6): 12%
- Median time to initial response ([2]; five patients with PR, range, 5–76): 6 weeks
- Patients with stable disease ([2]; nineteen of 42 patients): 45%
- Median PFS ([2]; patients who did not experience a TR, 95% CI: 1.54, 4.14): 1.9 months
- Median PFS ([2]; patients who experienced a TR, 95% CI: 1.61, 6.97): 3.5 months
- Reduction in the risk of disease progression or death ([2]; patients who had TR): 49%
- PFS ([2]; patients with PR as best response, range, 5.2 to 66+): 12 months
- PFS ([2]; patients with SD as best response, range, 1.2–14.0): 4.7 months
- PFS ([2]; patients with progressive disease as best response, range, 1.2–1.9): 1.4 months
- Patients who developed NCI CTC grade 2 or 3 rash [3]: ~30%
- Erlotinib Tmax [4]: 4.0 h
- Relationships between dose and both AUC0–24 and Cmax (Spearman rank correlation) ([5]; human): did not reveal any significant deviation from dose proportionality
- Interpatient and intrapatient variability of PK [5]: High
- Patients with pain associated with skin toxicity ([6]; 10 of 42 patients): 24%
- Patients with urticaria as dominant feature of rash ([6]; 11 of 42 patients): 26%
- Patients in whom the rash resembled rosacea ([6]; 12 of 42 patients): 29%
- Patients with desquamation as dominant feature of rash ([6]; 16 of 42 patients): 38%
- Patients with a TR who developed it at the initial 150 mg per day dose level ([6]; 19 of 24 patients with TR): 79%
- Patients who developed a target rash (TR) ([6]; 24 of 42 patients, TR = grade 2 tolerable rash requiring minocycline): 57%
- Patients with pruritus associated with skin toxicity ([6]; 28 of 42 patients): 67%
- Patients who developed skin toxicity ([6]; 41 of 42 patients): 98%
- Patients discontinued from the study due to skin toxicity ([6]; 42 patients): No patient
- Initial patients (first stage) who developed a TR ([6]; first stage of the study): 10 of the 11 initial patients
- Patients with a TR who experienced it only after dose escalation ([6]; five of 24 patients with TR): 21%
- Patients who experienced a grade 3 rash ([6]; of 42 patients): Six
- Dosing range above which erlotinib doses could not be increased in most patients ([6]; principally due to intolerable skin toxicity despite supportive measures): 250–300 mg per day
- Patients with a TR who developed it following escalation to 200 mg per day ([6]; three of 24 patients with TR): 13%
- Patients with a TR who developed it following escalation to 225 mg per day ([6]; two of 24 patients with TR): 8%
- Cmax (clinical; 150 mg): 1910 ng/mL
- Tmax (clinical; 150 mg): 2 h
- Cmax (clinical; 200 mg): 2650 ng/mL
- Tmax (clinical; 200 mg): 2 h
- Cmax (clinical; 225 mg): 2540 ng/mL
- Tmax (clinical; 225 mg): 2 h
- Cmax (clinical; 250 mg): 2820 ng/mL
- Tmax (clinical; 250 mg): 2.1 h
- Cmax (clinical; 275 mg): 2190 ng/mL
- Tmax (clinical; 275 mg): 1 h
- Cmax (clinical; 300 mg): 2940 ng/mL
- Tmax (clinical; 300 mg): 2 h
- Cmax (clinical; 325 mg): 2800 ng/mL
- Cmax (clinical; 350 mg): 1780 ng/mL
- Tmax (clinical; 350 mg): 3.5 h
- Cmax (clinical; 375 mg): 2770 ng/mL
- Tmax (clinical; 375 mg): 1 h
- Tmax (clinical; 400 mg): 2 h
- Cmax (clinical; 425 mg): 2780 ng/mL
- Cmax (clinical; 450 mg): 4100 ng/mL
- Tmax (clinical; 450 mg): 8 h
- Cmax (clinical; 475 mg): 2200 ng/mL
- Tmax (clinical; 475 mg): 4.2 h

Reference: article PMC3185947 (British Journal of Cancer, 2011)
